Consider 20 molecules from ChEMBL document CHEMBL1145940, “Computer modeling of selective regions in the active site of nitric oxide synthases: implication for the design of isoform-selective inhibitors” (J Med Chem, 2003).

A short description of test [1]: Inhibitory activity against endothelial nitric oxide synthase (eNOS).
The nature of test [2]: Inhibitory activity against Inducible nitric oxide synthase.
The nature of test [3]: Inhibitory activity against neuronal nitric oxide synthase.
A short description of test [4]: Selectivity for neuronal over endothelial nitric oxide synthase.

Peptide text beside a SMILES is read from it. Bounds are passed on as bounds.

Regarding `NCc1cccc(NC[C@@H](N)CCC/N=C(\N)N[N+](=O)[O-])c1`, the results for the Ki in test [1], in test [2] and in test [3] were 194 µM, 80 µM and 0.21 µM, respectively.
For the molecule `[H]/N=C(/NCCC[C@H](N)C(=O)N[C@H]1CNC(C(N)=O)C1)N[N+](=O)[O-]` (stereo partly drawn), the Ki in test [2] came out at 29.5 µM; in test [3], 0.074 µM.
`NCc1ccc(NC[C@@H](N)CCC/N=C(\N)N[N+](=O)[O-])cc1`: the Ki was 409 µM in test [1], 335 µM in test [2] and 1.37 µM in test [3]. The molecule further yielded a Selectivity in test [4] of 299.
In test [3], `NCCc1ccc(NC[C@@H](N)CCC/N=C(\N)N[N+](=O)[O-])cc1` had a Ki of 1.66 µM.
`NCNC[C@@H](N)CCC/N=C(/N)N[N+](=O)[O-]`: the Ki worked out at 314 µM in test [1], 39 µM in test [2] and 0.12 µM in test [3]. In addition, the Selectivity in test [4] worked out at 2580.
As to `NCCCNC[C@@H](N)CCC/N=C(\N)N[N+](=O)[O-]`, the inhibition constant (Ki) amounted to 411 µM in test [1] and 123 µM in test [2].
For `Cc1c(C)c2c(c(C)c1O)CC[C@@](C)(C(=O)C1CCC(c3ccc(NC(=N)c4cccs4)cc3)CC1)O2` (stereo partly drawn) the same measures were 110 µM and > 300 µM.
As to `N/C(=N\CCC[C@@H](NC(=O)[C@H](N)Cc1ccccc1)C(=O)O)N[N+](=O)[O-]` (HELM PEPTIDE1{[dF].[N=C(NCCC[C@@H](N[*:1])C(=O)O)N[N+](=O)[O-]]}$$$$V2.0), the results for the Ki in test [1], in test [2] and in test [3] were 90 µM, 13600 µM and 17 µM, respectively. Further, the Selectivity in test [4] is 5.3.
On the same counts, the results for `NC(=O)[C@H](N)NC(=O)[C@@H](N)CCC/N=C(/N)N[N+](=O)[O-]` are 261 µM, 61 µM, 1.1 µM and 237.
Take `COC(=O)[C@@H](CCC/N=C(\N)N[N+](=O)[O-])NC(=O)[C@@H](N)Cc1ccccc1` (HELM PEPTIDE1{F.[N=C(NCCC[C@@H](N[*:1])C(=O)[*:2])N[N+](=O)[O-]].[CO[*:1]]}$$$$V2.0): the Ki in test [1] is 150 µM; in test [2], 7500 µM; in test [3], 90 µM. Moreover, the Selectivity in test [4] turned out to be 1.7.
`NC[C@H](NC(=O)[C@@H](N)CCC/N=C(\N)N[N+](=O)[O-])C(N)=O` (HELM PEPTIDE1{[N=C(NCCC[C@H](N)C(=O)[*:2])N[N+](=O)[O-]].[NC[C@H](N[*:1])C(=O)[*:2]].[am]}$$$$V2.0): the Ki in test [1] is 200 µM; in test [2], 25 µM; in test [3], 0.31 µM.
Take `NCc1ccccc1NC[C@@H](N)CCC/N=C(\N)N[N+](=O)[O-]`: the results for the Ki in test [1], in test [2] and in test [3] were 39.8 µM, 29.3 µM and 5.55 µM, respectively. In test [4], the Selectivity amounted to 7.17.
Take `NC(=O)[C@@H](CCC/N=C(/N)N[N+](=O)[O-])NC(=O)[C@H](N)Cc1ccccc1`: the inhibitory constant (Ki) in test [1] was found to be 90 µM; in test [3], 17 µM. The same molecule registered a Selectivity in test [4] of 5.3.
For `NCCCC[C@@H](N)C(=O)N[C@H](CCC/N=C(/N)N[N+](=O)[O-])C(N)=O` (HELM PEPTIDE1{[dK].[N=C(NCCC[C@@H](N[*:1])C(=O)[*:2])N[N+](=O)[O-]].[am]}$$$$V2.0), the inhibition constant (Ki) in test [1] was 30 µM; in test [2], 910 µM; in test [3] it was 0.89 µM.
For `NCCCC[C@H](N)C(=O)N[C@H](CCC/N=C(\N)N[N+](=O)[O-])C(N)=O` (HELM PEPTIDE1{K.[N=C(NCCC[C@@H](N[*:1])C(=O)[*:2])N[N+](=O)[O-]].[am]}$$$$V2.0) the same measures were 229 µM, 4700 µM and 1.7 µM.
For `COC(=O)[C@@H](CCCNC(=N)N[N+](=O)[O-])NC(=O)[C@H](N)Cc1ccccc1` (HELM PEPTIDE1{[dF].[N=C(NCCC[C@@H](N[*:1])C(=O)[*:2])N[N+](=O)[O-]].[CO[*:1]]}$$$$V2.0), the Ki in test [1] was 5 µM; in test [2] it was 3600 µM; in test [3], 2 µM. In addition, the Selectivity in test [4] is 2.5.
For `N=C(NCCC[C@H](N)C(=O)N[C@@H]1CN[C@@H](C(N)=O)C1)N[N+](=O)[O-]`, the Ki came out at 110 µM in test [1] and 200 µM in test [2].
Consider `CCCCC[C@H]1NC(=N)C[C@H]1C`, for which the Ki was determined as 226 µM in test [1], 0.25 µM in test [2] and 3.2 µM in test [3].
For `N/C(=N/CCC[C@H](N)CNc1cccnc1)N[N+](=O)[O-]`, the values for the Ki in test [1], in test [2] and in test [3] were 523 µM, 141 µM and 0.55 µM, respectively. In test [4], this molecule showed a Selectivity of 951.
For `N/C(=N\CCC[C@H](N)CNCc1cccnc1)N[N+](=O)[O-]` the same measures were 193 µM, 395 µM, 0.76 µM and 254.
